From patent publication US20030113815A1, “Canine peroxisome proliferator activated receptor gamma” (Pfizer Inc., priority 2001, published 2003)

System: TNF-α expression in canine DH82 cells
Test: Effect of PPARγ agonist on TNF-α mRNA levels (Q-PCR) in canine DH82 cells
Format: cell-based
Details: two hours, normalized to GAPDH
Experimental: Canine DH82 cells (ATCC No. CRL-10389) were cultured in RPMI 1640 medium containing 2 mM L-glutamine, 25 mM Hepes, 10% fetal bovine serum (FBS) and 1× antimycotic at 37° C., 95% humidity, and 5% CO2. Cells were treated with 10 nM PMA (Sigma-Aldrich, St. Louis, Mo.), PMA (10 nM) plus darglitazone (10 uM), and darglitazone (10 μM), respectively for two hours. After treatment, cell RNA lysis buffer was added to the cells. Samples were loaded into MagNa Pure™ machine (F. Hoffmann-La Roche, Basel, Switzerland). MagNa Pure LC™ RNA isolation Kit II (F. Hoffmann-La Roche) was used for isolation of total RNA from culture cells. First strand cDNA synthesis kit for RT-PCR (F. Hoffmann-La Roche) was used to synthesize cDNA. Samples were incubated at 25° C. for 10 minutes and then at 42° C. for 60 minutes, denatured at 90° C. for 5 minutes and cooled to 4° C. for 1-2 hr or at −20° C. for longer periods. Quantification PCR (Q-PCR) was performed using the Lightcycler Faster DNA Master SYBR Green 1™ kit (F. Hoffmann-La Roche) using canine TNF-α primers (forward primer: 5′ […], reverse primer: 5′ […]). […] For quantification, melting points were measured every 0.2° C. from 60° C. to 99° C. using fluorescence detection. […]

SMILES: Cc1oc(-c2ccccc2)nc1CCC(=O)c1ccc(CC2SC(=O)NC2=O)cc1 (centres unmarked) [darglitazone]
- reduction of TNF-α expression in PMA stimulated cells (PMA 10 nM plus darglitazone 10 uM, FIG. 2B): about 15%
- reduction of TNF-α expression from the basal level (unstimulated, darglitazone 10 μM, control basal level = 100%, FIG. 2A): about 40%
